According to patent publication US20240148821A1, “PHARMACEUTICAL USE OF CYCLIC PEPTIDE COMPOUND” (CHUGAI SEIYAKU KABUSHIKI KAISHA, priority 2021, published 2024):
Numbered stars: 1 amine (or outer) side, 2 acyl side, 3 side chain; on linkers, the order of the positions; unused ones are H or OH. Bridge positions count the residues as written; N and C are the ends. Square brackets hold non-standard residues; d marks the D form. Peptide text beside a SMILES is read from it. * marks the point of attachment. hPhe(3,5-F2-4-CF3) = N[C@@H](CCc1cc(F)c(C(F)(F)F)c(F)c1)C(=O)O; hPhe(3-Cl-4-CF3) = N[C@@H](CCc1ccc(C(F)(F)F)c(Cl)c1)C(=O)O; hPhe(3-F,4-CF3) = N[C@@H](CCc1ccc(C(F)(F)F)c(F)c1)C(=O)O; NMePhe(4-CF3) = CN[C@@H](Cc1ccc(C(F)(F)F)cc1)C(=O)O; hPhe(4-CF3) = N[C@@H](CCc1ccc(C(F)(F)F)cc1)C(=O)O; NEtPhe(4-Cl) = CCN[C@@H](Cc1ccc(Cl)cc1)C(=O)O; NMePhe(4-CN) = CN[C@@H](Cc1ccc(C#N)cc1)C(=O)O; NMePhe(4-Cl) = CN[C@@H](Cc1ccc(Cl)cc1)C(=O)O; NMePhe(4-Me) = CN[C@@H](Cc1ccc(C)cc1)C(=O)O; NMePhe(2-Cl) = CN[C@@H](Cc1ccccc1Cl)C(=O)O; NMedβ3hAla = C[C@H](CC(=O)[*:2])N(C)[*:1]; NMeGly(cPent) = CN[C@H](C(=O)O)C1CCCC1; Phe(3-I) = N[C@@H](Cc1cccc(I)c1)C(=O)O; Pro(4,4-F2) = O=C(O)[C@@H]1CC(F)(F)CN1; NMeCha = CN[C@@H](CC1CCCCC1)C(=O)O; NMeGly(cPr) = CN[C@H](C(=O)O)C1CC1; Gly(N-(CH2)2OEt) = CCOCCNCC(=O)O; NMeChg = CN[C@H](C(=O)O)C1CCCCC1; NMeF = CN[C@@H](Cc1ccccc1)C(=O)O; NMeI = CC[C@H](C)[C@H](NC)C(=O)O; NMeβAla = CN(CCC(=O)[*:2])[*:1]; NMeD = CN[C@@H](CC(=O)O)C(=O)O; NMeL = CN[C@@H](CC(C)C)C(=O)O; NMeV = CN[C@H](C(=O)O)C(C)C; Trifluoroethyl = FC(F)(F)C*; d(β3hA) = C[C@@H](N)CC(=O)O; NMeA = CN[C@@H](C)C(=O)O; NMeAib = CNC(C)(C)C(=O)O; Nle = CCCC[C@H](N)C(=O)O; Piperidide = C1CCN(*)CC1; Pyrrolidide = C1CCN(*)C1; Ac5c = NC1(C(=O)O)CCCC1; Aze = O=C(O)[C@@H]1CCN1; Ac4c = NC1(C(=O)O)CCC1; Sar = CNCC(=O)O

System: Human pancreatic cancer cell line AsPC-1 (G12D mutation Kras)
Assay: AsPC-1 cell growth inhibition (AsPC-1 CGI)
Format: cell-based
Details: read-out: AsPC-1 cell growth inhibition, 50% growth inhibitory concentration (IC50 value); 96 hours, CellTiter-Glo, values classified in ranges
Method: Test compounds were serially dilated with dimethyl sulfoxide, and 200 nL was then dispensed to a U-bottom 96-well plate using Labcyte Echo. […] The cell suspension was dispensed to a. plate containing a test compound at 100 μL per well and incubated at 37° C. in a 5% carbon dioxide gas incubator. 96 hours later, 80 μL of CellTiter-Glo (Promega) was added to each well and fluorescence was measured.

SMILES	IC50 [nM]
CC[C@H](C)[C@@H]1NC(=O)[C@H](C2CCCC2)N(C)C(=O)C[C@@H](C)NC(=O)[C@H](C(C)C)N(C)C(=O)C2(CCCC2)NC(=O)[C@@H]2CCCN2C(=O)[C@H](CCc2ccc(C(F)(F)F)c(Cl)c2)NC(=O)CN(C)C(=O)[C@H](CC2CCCCC2)N(C)C(=O)CN(C)C(=O)CN(C)C1=O [Compound 857] (cyclo([Ac5c][NMeV][d(β3hA)][NMeGly(cPent)]I[Sar][Sar][NMeCha][Sar][hPhe(3-Cl-4-CF3)]P))	> 500
CC[C@H](C)[C@@H]1NC(=O)[C@H](C)N(C)C(=O)C[C@@H](C(=O)N2CCCCC2)NC(=O)[C@H](CC(C)C)N(C)C(=O)[C@H](Cc2ccccc2)N(C)C(=O)[C@H](CC(C)C)NC(=O)[C@H](CCc2ccc(C(F)(F)F)c(Cl)c2)NC(=O)CN(C)C(=O)[C@H](Cc2ccc(Cl)cc2)N(C)C(=O)CN(C)C(=O)CN(C)C1=O [Compound 861] ([NMeA]I[Sar][Sar][NMePhe(4-Cl)][Sar][hPhe(3-Cl-4-CF3)]L[NMeF][NMeL]D-Piperidide; lactam N-11)	> 500
CC[C@H](C)[C@@H]1NC(=O)[C@H](CC(C)C)N(C)C(=O)C[C@@H](C)N(C)C(=O)[C@H]([C@@H](C)CC)N(C)C(=O)C2(CCCC2)NC(=O)[C@@H]2CC(F)(F)CN2C(=O)[C@H](CCc2cc(F)c(C(F)(F)F)c(F)c2)NC(=O)CN(C)C(=O)[C@H](Cc2ccc(C(F)(F)F)cc2)N(C)C(=O)[C@@H]2CCN2C(=O)[C@H](C)N(C)C1=O [Compound 863] (cyclo([Ac5c][NMeI][NMedβ3hAla][NMeL]I[NMeA][Aze][NMePhe(4-CF3)][Sar][hPhe(3,5-F2-4-CF3)][Pro(4,4-F2)]))	≤ 20
CCOCCN1CC(=O)N(C)[C@@H](CC2CCCCC2)C(=O)N(C)CC(=O)N[C@@H](CCc2ccc(C(F)(F)F)c(Cl)c2)C(=O)N2CCC[C@H]2C(=O)NC2(CCCC2)C(=O)N(C)[C@@H](C(C)C)C(=O)N[C@H](C)CC(=O)N(C)[C@@H](CC(C)C)C(=O)N[C@@H]([C@@H](C)CC)C(=O)N(C)CC1=O [Compound 864] (cyclo([Ac5c][NMeV][d(β3hA)][NMeL]I[Sar][Gly(N-(CH2)2OEt)][NMeCha][Sar][hPhe(3-Cl-4-CF3)]P))	> 500
CC[C@H](C)[C@@H]1NC(=O)[C@H](CC(C)C)N(C)C(=O)C[C@@H](C(=O)N2CCCCC2)N(C)C(=O)[C@H](C(C)C)N(C)C(=O)C2(CCCC2)NC(=O)[C@@H]2CCCN2C(=O)[C@H](CCc2ccc(C(F)(F)F)c(Cl)c2)NC(=O)CN(C)C(=O)[C@H](Cc2ccc(C#N)cc2)N(C)C(=O)CN(C)C(=O)CN(C)C1=O [Compound 867] ([NMeL]I[Sar][Sar][NMePhe(4-CN)][Sar][hPhe(3-Cl-4-CF3)]P[Ac5c][NMeV][NMeD]-Piperidide; lactam N-11)	> 500
CC[C@H](C)[C@@H]1NC(=O)[C@H](CC(C)C)N(C)C(=O)C[C@@H](C)N(C)C(=O)[C@H](C2CC2)N(C)C(=O)C2(CCCC2)NC(=O)[C@@H]2CCCN2C(=O)[C@H](CCc2ccc(C(F)(F)F)c(Cl)c2)NC(=O)CN(C)C(=O)[C@H](CC2CCCCC2)N(C)C(=O)CN(C)C(=O)CN(C)C1=O [Compound 874] (cyclo([Ac5c][NMeGly(cPr)][NMedβ3hAla][NMeL]I[Sar][Sar][NMeCha][Sar][hPhe(3-Cl-4-CF3)]P))	> 500
CCCC[C@@H]1NC(=O)[C@H](Cc2cccc(I)c2)NC(=O)CN(C)C(=O)[C@H](Cc2ccc(Cl)cc2)N(C)C(=O)CN(C)C(=O)CN(C)C(=O)[C@H]([C@@H](C)CC)NC(=O)[C@H](CC(C)C)N(C)C(=O)C[C@@H](C(=O)N2CCCCC2)N(C)C(=O)[C@H](CC(C)C)NC(=O)[C@H](Cc2ccc(C)cc2)N(C)C1=O [Compound 876] ([NMeL]I[Sar][Sar][NMePhe(4-Cl)][Sar][Phe(3-I)][Nle][NMePhe(4-Me)]L[NMeD]-Piperidide; lactam N-11)	> 500
CC[C@H](C)[C@@H]1NC(=O)[C@H](CC(C)C)N(C)C(=O)CCN(C)C(=O)[C@H](C(C)C)N(C)C(=O)C2(CCCC2)NC(=O)[C@@H]2CCCN2C(=O)[C@H](CCc2ccc(C(F)(F)F)c(F)c2)NC(=O)CN(C)C(=O)[C@H](CC2CCCCC2)N(C)C(=O)CN(C)C(=O)CN(C)C1=O [Compound 879] (cyclo([Ac5c][NMeV][NMeβAla][NMeL]I[Sar][Sar][NMeCha][Sar][hPhe(3-F,4-CF3)]P))	> 500
CC(C)C[C@H]1C(=O)N[C@@H](COCC(F)(F)F)C(=O)N(C)CC(=O)N(C)CC(=O)N(C)[C@@H](CC2CCCCC2)C(=O)N(C)CC(=O)N[C@@H](CCc2ccc(C(F)(F)F)c(Cl)c2)C(=O)N2CCC[C@H]2C(=O)NC2(CCCC2)C(=O)N(C)[C@@H](C2CCCCC2)C(=O)N(C)[C@H](C(=O)N2CCCCC2)CC(=O)N1C [Compound 894] ([NMeL]S(Trifluoroethyl)[Sar][Sar][NMeCha][Sar][hPhe(3-Cl-4-CF3)]P[Ac5c][NMeChg][NMeD]-Piperidide; lactam N-11)	> 500
CCCC[C@@H]1NC(=O)[C@H](CCc2ccc(C(F)(F)F)c(Cl)c2)NC(=O)CN(C)C(=O)[C@H](Cc2ccc(Cl)cc2)N(CC)C(=O)CN(C)C(=O)CN(C)C(=O)[C@H]([C@@H](C)CC)NC(=O)[C@H](CC(C)C)N(C)C(=O)C[C@@H](C(=O)N2CCCCC2)N(C)C(=O)[C@H](CC(C)C)NC(=O)C(C)(C)N(C)C1=O [Compound 895] ([NMeL]I[Sar][Sar][NEtPhe(4-Cl)][Sar][hPhe(3-Cl-4-CF3)][Nle][NMeAib]L[NMeD]-Piperidide; lactam N-11)	> 500
CC[C@H](C)[C@@H]1NC(=O)[C@H](CC(C)C)N(C)C(=O)C[C@@H](C)N(C)C(=O)[C@H](CC(C)C)NC(=O)C(C)(C)N(C)C(=O)[C@H](CC(C)C)NC(=O)[C@H](CCc2ccc(C(F)(F)F)c(F)c2)NC(=O)CN(C)C(=O)[C@H](CC2CCCCC2)N(C)C(=O)CN(C)C(=O)[C@@H]2CCN2C1=O [Compound 905] (cyclo([Aze][Sar][NMeCha][Sar][hPhe(3-F,4-CF3)]L[NMeAib]L[NMedβ3hAla][NMeL]I))	> 500
CC[C@H](C)[C@@H]1NC(=O)[C@H](C)N(C)C(=O)C[C@@H](C(=O)N2CCCC2)N(C)C(=O)[C@H](C(C)C)N(C)C(=O)C2(CCC2)NC(=O)[C@H](Cc2ccccc2Cl)N(C)C(=O)[C@H](CCc2ccc(C(F)(F)F)c(Cl)c2)NC(=O)CN(C)C(=O)[C@H](CC2CCCCC2)N(C)C(=O)CN(C)C(=O)CN(C)C1=O [Compound 906] ([NMeA]I[Sar][Sar][NMeCha][Sar][hPhe(3-Cl-4-CF3)][NMePhe(2-Cl)][Ac4c][NMeV][NMeD]-Pyrrolidide; lactam N-11)	> 500
CC[C@H](C)[C@@H]1NC(=O)[C@H](CC(C)C)N(C)C(=O)C[C@@H](C(=O)N(C)C)N(C)C(=O)[C@H](C2CCCC2)N(C)C(=O)C2(CCCC2)NC(=O)[C@H](Cc2ccc(C)cc2)N(C)C(=O)[C@H](CCc2ccc(C(F)(F)F)c(Cl)c2)NC(=O)CN(C)C(=O)[C@H](CC2CCCCC2)N(C)C(=O)[C@@H]2CCN2C(=O)[C@H](C)N(C)C1=O [Compound 908] ([NMeL]I[NMeA][Aze][NMeCha][Sar][hPhe(3-Cl-4-CF3)][NMePhe(4-Me)][Ac5c][NMeGly(cPent)][NMeD]-NMe2; lactam N-11)	> 500
CC[C@H](C)[C@@H]1NC(=O)[C@H](C)N(C)C(=O)C[C@@H](C)NC(=O)[C@H](C(C)C)N(C)C(=O)[C@H](Cc2ccccc2)N(C)C(=O)[C@H](CC(C)C)N(C)C(=O)[C@H](CCc2ccc(C(F)(F)F)cc2)NC(=O)CN(C)C(=O)[C@H](Cc2ccc(Cl)cc2)N(C)C(=O)[C@@H]2CCN2C(=O)CN(C)C1=O [Compound 913] (cyclo([Aze][NMePhe(4-Cl)][Sar][hPhe(4-CF3)][NMeL][NMeF][NMeV][d(β3hA)][NMeA]I[Sar]))	> 500
